Measurements reported in PubChem BioAssay AID256 (DTP/NCI, 2004).
Where “and” joins values, the source holds several entries; their conditions need not be identical. Identical values can stand only once. Toxic doses and inconclusive results are not listed.

Tested on: CD2F1 mice, L1210 leukemia ip, survival T/C
Test: NCI In Vivo Anticancer Drug Screen. Data for tumor model L1210 Leukemia (intraperitoneal) in CD2F1 (CDF1) mice
Conditions: higher = longer survival
In short: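 Mice carrying a transplanted tumor received test compound or vehicle alone. The value is the measurement in the treated group divided by that in the vehicle-treated control group.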

[1] = endpoint: mean survival time, dose: 100.0 mg/kg/injection, schedule: Q04DX003 (ip), vehicle: saline with Tween-80
[2] = endpoint: mean survival time, dose: 200.0 mg/kg/injection, schedule: Q04DX003 (ip), vehicle: saline with Tween-80
[3] = endpoint: mean survival time, dose: 400.0 mg/kg/injection, schedule: Q04DX003 (ip), vehicle: saline with Tween-80
[4] = endpoint: mean survival time, dose: 100.0 mg/kg/injection, schedule: Q01DX009 (ip), vehicle: saline with Tween-80
[5] = endpoint: mean survival time, dose: 100.0 mg/kg/injection, schedule: Q01DX001 (ip), vehicle: saline
[6] = endpoint: mean survival time, dose: 200.0 mg/kg/injection, schedule: Q01DX001 (ip), vehicle: saline
[7] = endpoint: mean survival time, dose: 50.0 mg/kg/injection, schedule: Q01DX009 (ip), vehicle: saline with Tween-80

`COC1=CC=C2[C@@H]3Cc4ccc(OC)c5c4[C@]2(CCN3CCCl)C1O5` (stereo partly drawn) was tested, and the T/C (endpoint: mean survival time, dose: 25.0 mg/kg/injection, schedule: Q04DX003 (ip), vehicle: DMSO) was 107 % of control, the T/C (endpoint: mean survival time, dose: 50.0 mg/kg/injection, schedule: Q04DX003 (ip), vehicle: DMSO) was 104 % of control and the T/C (endpoint: mean survival time, dose: 100.0 mg/kg/injection, schedule: Q04DX003 (ip), vehicle: DMSO) was 102 % of control.

With `O=C(O)COC(C[N+](=O)[O-])C(Cl)(Cl)Cl` (stereo not drawn) the T/C [1] was 93 % of control, the T/C [2] was 104 % of control and the T/C [3] was 98 % of control.

For `O=P(N1CC1)(N1CC1)N1CC1`, the T/C (endpoint: mean survival time, dose: 2.0 mg/kg/injection, schedule: Q03DX003 (ip), vehicle: saline) was 110 % of control and the T/C (endpoint: mean survival time, dose: 16.0 mg/kg/injection, schedule: Q01DX009 (ip), vehicle: saline) was 96 % of control.

`CC(=O)Nc1cc2ccccc2c2ccc3ccccc3c12` was tested, and the T/C (endpoint: mean survival time, dose: 100.0 mg/kg/injection, schedule: Q01DX001 (ip), vehicle: saline with Tween-80) was 89 % of control, the T/C [4] was 96 % of control and the T/C (endpoint: mean survival time, dose: 200.0 mg/kg/injection, schedule: Q01DX001 (ip), vehicle: saline with Tween-80) was 93 % of control. For the same molecule, the T/C (endpoint: mean survival time, dose: 200.0 mg/kg/injection, schedule: Q01DX009 (ip), vehicle: saline with Tween-80) was 95 % of control, the T/C (endpoint: mean survival time, dose: 400.0 mg/kg/injection, schedule: Q01DX001 (ip), vehicle: saline with Tween-80) was 102 % of control and the T/C (endpoint: mean survival time, dose: 400.0 mg/kg/injection, schedule: Q01DX009 (ip), vehicle: saline with Tween-80) was 96 % of control.

In the case of `O=C(O)c1ccccc1C(Br)C(Br)c1ccccc1` (stereo not drawn), the T/C [1] is reported as 101 % of control, the T/C [2] is reported as 98 % of control and the T/C [3] is reported as 106 % of control.

In the case of `CC(CC(=O)c1ccccc1)=Nc1ccccc1.CC(CC(=O)c1ccccc1)=Nc1ccccc1.[O]=[V]`, the T/C (endpoint: mean survival time, dose: 50.0 mg/kg/injection, schedule: Q01DX001 (ip), vehicle: Klucel (hydroxypropylcellulose) (HPC)) is reported as 96 % of control, the T/C (endpoint: mean survival time, dose: 100.0 mg/kg/injection, schedule: Q01DX001 (ip), vehicle: Klucel (hydroxypropylcellulose) (HPC)) is reported as 88 % of control and the T/C (endpoint: mean survival time, dose: 200.0 mg/kg/injection, schedule: Q01DX001 (ip), vehicle: Klucel (hydroxypropylcellulose) (HPC)) is reported as 94 % of control. For the same molecule, the T/C (endpoint: mean survival time, dose: 400.0 mg/kg/injection, schedule: Q01DX001 (ip), vehicle: Klucel (hydroxypropylcellulose) (HPC)) was 93 % of control and the T/C (endpoint: mean survival time, dose: 800.0 mg/kg/injection, schedule: Q01DX001 (ip), vehicle: Klucel (hydroxypropylcellulose) (HPC)) was 90 % of control.

For `COc1ccc2c(c1C)CN1CCc3cc4c(cc3C1=C2)OCO4`, the T/C (endpoint: mean survival time, dose: 75.0 mg/kg/injection, schedule: Q01DX001 (ip), vehicle: other) was 94 % of control, the T/C (endpoint: mean survival time, dose: 150.0 mg/kg/injection, schedule: Q01DX001 (ip), vehicle: other) was 88 % of control and the T/C (endpoint: mean survival time, dose: 300.0 mg/kg/injection, schedule: Q01DX001 (ip), vehicle: other) was 88 % of control.

In the case of `COC1(OC)C2(Cl)CCC1(Cl)CC2`, the T/C (endpoint: mean survival time, dose: 50.0 mg/kg/injection, schedule: Q01DX001 (ip), vehicle: saline) is reported as 103 % of control, the T/C [5] is reported as 113 % of control and the T/C [6] is reported as 102 % of control.

`Nc1n[nH]c(=S)n1-c1ccccc1` was tested, and the T/C (endpoint: mean survival time, dose: 50.0 mg/kg/injection, schedule: Q01DX009 (ip), vehicle: acetone) was 98 % of control, the T/C (endpoint: mean survival time, dose: 100.0 mg/kg/injection, schedule: Q01DX009 (ip), vehicle: acetone) was 93 % of control and the T/C (endpoint: mean survival time, dose: 200.0 mg/kg/injection, schedule: Q01DX009 (ip), vehicle: acetone) was 98 % of control.

With `CCN(CC)CC(O)CNc1ncnc(N)c1C(=C(C)C)c1ccc(Cl)cc1` (stereo not drawn) the T/C (endpoint: mean survival time, dose: 25.0 mg/kg/injection, schedule: Q01DX009 (ip), vehicle: saline with Tween-80) was 101 % of control, the T/C [7] was 97 % of control and the T/C [4] was 97 % of control. For the same molecule, the T/C [1] was 101 % of control.

For `Nc1ccc2nc3ccc(N)cc3[n+](-c3ccccc3)c2c1`, the T/C (endpoint: mean survival time, dose: 6.0 mg/kg/injection, schedule: Q01DX009 (ip), vehicle: saline) was 105 % of control, the T/C (endpoint: mean survival time, dose: 8.0 mg/kg/injection, schedule: Q01DX009 (ip), vehicle: saline) was 105 % of control and the T/C (endpoint: mean survival time, dose: 12.0 mg/kg/injection, schedule: Q01DX009 (ip), vehicle: saline) was 110 % of control.

In the case of `COc1ccc(CCNC(=O)c2ccc(OC)c(OC)c2)cc1OC`, the T/C (endpoint: mean survival time, dose: 12.5 mg/kg/injection, schedule: Q01DX009 (ip), vehicle: other) is reported as 104 % of control, the T/C (endpoint: mean survival time, dose: 25.0 mg/kg/injection, schedule: Q01DX009 (ip), vehicle: other) is reported as 90 % of control and the T/C (endpoint: mean survival time, dose: 50.0 mg/kg/injection, schedule: Q01DX009 (ip), vehicle: other) is reported as 103 % of control. The T/C (endpoint: mean survival time, dose: 100.0 mg/kg/injection, schedule: Q01DX009 (ip), vehicle: other) was 98 % of control and the T/C (endpoint: mean survival time, dose: 200.0 mg/kg/injection, schedule: Q01DX009 (ip), vehicle: other) was 97 % of control.

With `O=S(=O)(O)C1CCC[N-]C1.O=S(=O)(O)C1CCC[N-]C1.[Cl][Pt+2]([Cl])([Cl])[Cl]` (stereo not drawn) the T/C (endpoint: mean survival time, dose: 12.5 mg/kg/injection, schedule: Q01DX009 (ip), vehicle: water) was 102 % of control, the T/C (endpoint: mean survival time, dose: 25.0 mg/kg/injection, schedule: Q01DX009 (ip), vehicle: water) was 102 % of control and the T/C (endpoint: mean survival time, dose: 50.0 mg/kg/injection, schedule: Q01DX009 (ip), vehicle: water) was 105 % of control. For the same molecule, the T/C (endpoint: mean survival time, dose: 100.0 mg/kg/injection, schedule: Q01DX009 (ip), vehicle: water) was 110 % of control.

With `O=[N+]([O-])c1ccc(N/N=C/c2ccc(CO)cc2)c([N+](=O)[O-])c1` the T/C (endpoint: mean survival time, dose: 200.0 mg/kg/injection, schedule: Q04DX003 (ip), vehicle: saline) was 91 % of control and the T/C (endpoint: mean survival time, dose: 400.0 mg/kg/injection, schedule: Q04DX003 (ip), vehicle: saline) was 92 % of control.

For `c1cc2c(c(OCC3=NCCN3)c1)CCCC2`, the T/C (endpoint: mean survival time, dose: 25.0 mg/kg/injection, schedule: Q04DX002 (ip), vehicle: saline) was 94 % of control and the T/C (endpoint: mean survival time, dose: 50.0 mg/kg/injection, schedule: Q04DX002 (ip), vehicle: saline) was 110 % of control.

For `COc1cc(OC)c(NC(=O)Oc2ccc(NC(C)=O)cc2)cc1Cl`, the T/C [7] was 88 % of control and the T/C [4] was 96 % of control.

With `CCc1ccc(NC(=O)c2ccc(C(=O)Nc3ccc(CC)cc3)cc2)cc1` the T/C [5] was 95 % of control, the T/C [6] was 95 % of control and the T/C (endpoint: mean survival time, dose: 400.0 mg/kg/injection, schedule: Q01DX001 (ip), vehicle: saline) was 104 % of control.

With `CCCC(C#CCN(C)C)N(C)C` (stereo not drawn) the T/C (endpoint: mean survival time, dose: 12.5 mg/kg/injection, schedule: Q01DX009 (ip), vehicle: saline) was 97 % of control, the T/C (endpoint: mean survival time, dose: 25.0 mg/kg/injection, schedule: Q01DX009 (ip), vehicle: saline) was 97 % of control and the T/C (endpoint: mean survival time, dose: 50.0 mg/kg/injection, schedule: Q01DX009 (ip), vehicle: saline) was 98 % of control.

`CN1CCCN(C)C1c1cc([N+](=O)[O-])ccc1O` was tested, and the T/C (endpoint: mean survival time, dose: 6.25 mg/kg/injection, schedule: Q01DX009 (ip), vehicle: saline sonified) was 100 % of control, the T/C (endpoint: mean survival time, dose: 6.25 mg/kg/injection, schedule: Q04DX003 (ip), vehicle: saline sonified) was 106 % of control and the T/C (endpoint: mean survival time, dose: 12.5 mg/kg/injection, schedule: Q01DX009 (ip), vehicle: saline sonified) was 98 % of control. For the same molecule, the T/C (endpoint: mean survival time, dose: 12.5 mg/kg/injection, schedule: Q04DX003 (ip), vehicle: saline sonified) was 101 % of control, the T/C (endpoint: mean survival time, dose: 25.0 mg/kg/injection, schedule: Q01DX009 (ip), vehicle: saline sonified) was 89 % of control and the T/C (endpoint: mean survival time, dose: 25.0 mg/kg/injection, schedule: Q04DX003 (ip), vehicle: saline sonified) was 98 % of control.

With `OCC1OC(n2cnc3c(=S)nc(NO)[nH]c32)C(O)C1O` (stereo not drawn) the T/C (endpoint: mean survival time, dose: 6.25 mg/kg/injection, schedule: Q01DX005 (ip), vehicle: saline with Tween-80) was 196 % of control and 237 % of control, the T/C (endpoint: mean survival time, dose: 12.5 mg/kg/injection, schedule: Q01DX005 (ip), vehicle: saline with Tween-80) was 164 % of control and 263 % of control and the T/C (endpoint: mean survival time, dose: 25.0 mg/kg/injection, schedule: Q01DX005 (ip), vehicle: saline with Tween-80) was 102 % of control. The T/C (endpoint: mean survival time, dose: 50.0 mg/kg/injection, schedule: Q01DX005 (ip), vehicle: saline with Tween-80) was 89 % of control.

With `CCOC(=O)C1=C(Nc2ccc(OC)cc2)C(N)=NC1=N` the T/C (endpoint: median survival time, dose: 6.25 mg/kg/injection, schedule: Q01DX005 (ip), vehicle: suspension in saline) was 98 % of control, the T/C (endpoint: median survival time, dose: 12.5 mg/kg/injection, schedule: Q01DX005 (ip), vehicle: suspension in saline) was 101 % of control and 107 % of control and the T/C (endpoint: median survival time, dose: 25.0 mg/kg/injection, schedule: Q01DX005 (ip), vehicle: suspension in saline) was 101 % of control and 107 % of control. For the same molecule, the T/C (endpoint: median survival time, dose: 36.0 mg/kg/injection, schedule: Q01DX005 (ip), vehicle: saline) was 105 % of control and 108 % of control, the T/C (endpoint: median survival time, dose: 50.0 mg/kg/injection, schedule: Q01DX005 (ip), vehicle: saline) was 111 % of control and the T/C (endpoint: median survival time, dose: 50.0 mg/kg/injection, schedule: Q01DX005 (ip), vehicle: suspension in saline) was 101 % of control and 107 % of control. For the same molecule, the T/C (endpoint: median survival time, dose: 60.0 mg/kg/injection, schedule: Q01DX005 (ip), vehicle: saline) was 102 % of control, the T/C (endpoint: median survival time, dose: 100.0 mg/kg/injection, schedule: Q01DX005 (ip), vehicle: saline) was 106 % of control and the T/C (endpoint: median survival time, dose: 100.0 mg/kg/injection, schedule: Q01DX005 (ip), vehicle: suspension in saline) was 117 % of control.
